Earlier results in US11331424B2, “Apparatus, systems and methods for delivery of medication to the brain to treat neurological conditions” (InCube Labs, LLC, priority 2009, dated 2022).
Like-named read-outs stand apart in the source and are kept apart here.

Assays:
[1] = test system: evoked and spontaneous epileptic neural activity; conditions: epileptic animal models
[2] = test system: evoked and spontaneous epileptic neural activity; conditions: human patients
[3] = many patients; significant = more than about 10% increase in urine production or more than about 5% decrease in plasma electrolyte
[4] = oral administration

NS(=O)(=O)c1cc(C(=O)O)c(NCc2ccco2)cc1Cl [Furosemide]
effect on evoked and spontaneous epileptic neural activity and subsequent cortical spreading depression [1]: block evoked and spontaneous epileptic neural activity and subsequent cortical spreading depression | effect on evoked and spontaneous epileptic neural activity and subsequent cortical spreading depression [2]: block evoked and spontaneous epileptic neural activity and subsequent cortical spreading depression | threshold dosage which produces a significant increase in diuresis and/or significant decrease in the patient's electrolyte level(s) [3]: about 20 mg | time to get into the patient's blood stream [4]: ≥ 30 min
